Values after ≈ are worked out from the molar mass of the structure shown. Read-outs that look alike come from different tables or passages of the source.
Legend:
Δarr M. abscessus = assay: MIC assay, isogenic arr-deleted strain; format: cell-based, Mycobacterium abscessus; settings: for MICΔorr: Table 10
In short: (§1)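 Two-fold, ten-point dilutions in 7H9 with 2% DMSO; mid-log culture diluted to OD600=0.1 (1×10^7 CFU/mL). Incubated 3 days at 37 °C, shaking 110 RPM; growth = Day 3 minus Day 0 OD600, expressed as percentage of drug-free growth and plotted against concentration. Two biological replicates.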

M. abscessus Bamboo [1] = assay: MIC assay, clinical isolate Bamboo; format: cell-based, Mycobacterium abscessus
M. abscessus ATCC 19977 = assay: MIC assay in 96-well plate format, wild-type strain; format: cell-based, Mycobacterium abscessus; settings: for MIC: read-out: WT Mab MIC; for MICWT: Table 10
In short: as §1

M. abscessus Bamboo [2] = assay: Broth MBC90 (bMBC90); format: cell-based, Mycobacterium abscessus
Description: Broth MIC, broth MBC90 (bMBC90), and caseum surrogate MBC90 ([…]) of clinically used antibiotics and of novel ADP-ribosylation-resistant rifabutin analogs against M. abscessus Bamboo have been evaluated.

M. abscessus Bamboo [3] = assay: Caseum surrogate MBC90 (cMBC90) kill assay; format: cell-based, Mycobacterium abscessus; settings: for MBC: read-out: cMBC90
Description: (§2) The surrogate matrix was generated as described previously from cultured THP-1 cells (ATCC TIB-202) (mBio, 2023, 14, e0059823). M. abscessus exponential cultures grown in Middlebrook 7H9 broth (Sigma Aldrich) (OD600 0.6-0.9) were spun down and resuspended in water to an OD600 of 7, 0.7, and 0.07. As described for the M. tuberculosis caseum surrogate assay (mnBio, 2023, 14, e0059823), the bacterial suspensions (at three different dilutions resulting in ˜10^9, 10^8, and 10^7 starting CFU/mL, represented by circle, square, and triangle indicators respectively) were added to the caseum surrogate in the ratio 2:1 (vol/wt), briefly homogenized with 1.4-mm zirconia beads, divided evenly into nine 1.5-mL microcentrifuge tubes, and incubated as standing cultures at 37° C. At the indicated time points, tubes were removed and used for CFU enumeration by plating on Middlebrook 7H11 agar (Sigma Aldrich). Separate tubes were used at each time point. To determine the kill curves, cultures with a starting CFU/mL of 10^8 were used (resulting in the middle curve with square indicators). Arrows indicate the time points when drugs were added and the end of the treatment. The experiment was repeated three times independently, yielding similar results. A representative example is shown. Dots and error bars represent means and standard deviations of three technical replicates, respectively.
FIGS. 29A-29M show the Dose-response kill curves against M. abscessus Bamboo in caseum surrogate. M. abscessus cultures were set up as described in the legend of FIG. 28. Bacterial cell suspensions were added to yield a starting CFU of 10^8/mL (FIG. 28, middle growth curve with square indicators). […] The shaded areas indicate drug concentration windows achieved in caseum in vivo. (Antimicrob. Agents Chemother., 2021, 65, e0050621; Antimicrob. Agents Chemother., 2022, 66, e0221221; PLoS Med., 2019, 16, e1002773; ACS Infect. Dis., 2016, 2, 251-267). The experiment was repeated twice independently, yielding similar results. A representative example is shown. Dots and error bars represent means and standard deviations of three technical replicates, respectively. Horizontal dotted lines indicate the cutoff for 1 log reduction in CFU compared to 10-day drug-free control culture. The cMBC90 values shown in Table 16 are the drug concentrations that reduce CFU by 90% relative to the CFU of drug-free controls at day 10. Since the cultures were in the stationary phase on day 5 when drug treatment started, the CFUs of the drug-free cultures at day 10 were similar to the CFUs of the drug-free cultures at day 5 (FIG. 28).
as §2, with “(doi: 10.1128/mbio.00598-23).” for “(mBio, 2023, 14, e0059823).”, “(doi: 10.1128/mbio.00598-23),” for “(mnBio, 2023, 14, e0059823),”, “CFU/mL)” for “CFU/mL, represented by circle, square, and triangle indicators respectively)”, “curves for the drugs,” for “curves,”, “used.” for “used (resulting in the middle curve with square indicators). Arrows indicate the time points when drugs were added and the end of the treatment.”, “results.” for “results. A representative example is shown. Dots and error bars represent means and standard deviations of three technical replicates, respectively.”
The experiment was repeated twice independently, yielding similar results. A representative example is shown. The cMBC90 values shown in Table 16 are the drug concentrations that reduce CFU by 90% relative to the CFU of drug-free controls at day 10. […]

[4] = Mouse pharmacokinetics studies; format: in vivo, CD-1 mice; settings: for AUCp.o.: po
Protocol: Blood was captured in CB300 blood collection tubes containing K2EDTA and stored on ice. Plasma was recovered after centrifugation and stored at −80° C. until analyzed by high pressure liquid chromatography coupled to tandem mass spectrometry (LC-MS/MS). Pharmacokinetic parameters were calculated using non-compartmental pharmacokinetic analysis. […] Extracts were vortexed for 5 minutes and centrifuged at 4000 RPM for 5 minutes. 75 μL of supernatant was transferred for LC-MS/MS analysis and diluted with 75 μL of Milli-Q deionized water. Rifabutin was purchased from Carbosynth. C25-desacetyl rifabutin and rifabutin-d7 were purchased from Toronto Research Chemical. Verapamil was purchased from Sigma-Aldrich. […] Multiple-reaction monitoring of parent/daughter transitions in electrospray positive-ionization mode was used to quantify all analytes. […] Data processing was performed using Analyst software (version 1.6.2; Applied Biosystems Sciex).

Mycobacterium abscessus = assay: MIC against Mycobacterium abscessus (strain not given); format: cell-based
[5] = Plasma protein binding assay (rapid equilibrium dialysis); format: in vitro ADME
In short: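 Rapid equilibrium dialysis ran 4 h at 37° C (300 RPM) with compound-spiked plasma (10,000 ng/mL) on one side and PBS on the other. Each side was then mixed 1:1 […] to equalise matrix before LC-MS/MS quantification.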

[6] = Mycobacteroides abscessus, broth, M. abscessus Bamboo, Table 16, read-out: MIC
[7] = Mycobacteroides abscessus, 120 h, broth, 5 days
[8] = Mycobacteroides abscessus, 120 h

Protocol for CYP3A4: The threshold cycle (CT) was measured for each isoform cDNA by real time qRT-PCR. The mRNA level of each isoform was assessed by the relative quantifiation with reference gene (GAPDH) as the normalizer method. The normalized fold induction was calculated by 2^−ΔΔCT method, in which 0.1% DMSO was used as the reference (vehicle control). The induction potential of each test compound was analyzed by comparing its fold induction to a pre-determined cutoff value for each lot of hepatocytes. The hepatocytes lots used in this study were validated using 10 known inducers and 5 known non-inducers for each isozyme. A cutoff value is determined based on the validation study for each hepatocytes lot.

CO[C@H]1/C=C/O[C@@]2(C)Oc3c(C)c(O)c4c(c3C2=O)C2=NC3(CCN(CC(C)C)CC3)NC2=C(NC(=O)/C(C)=C/C=C/[C@H](C)[C@H](O)[C@@H](C)[C@@H](O)[C@@H](C)[C@H](OC(=O)c2cncnc2)[C@@H]1C)C4=O [5n, 25-O-(5-pyrimidinecarbonyl)-25-O-desacetyrifabutin]
Δarr Mab MIC (Δarr M. abscessus; arr-deleted strain, 90% growth inhibition): 0.025 µM | MIC (M. abscessus Bamboo [1]; broth, M. abscessus Bamboo, Table 16, read-out: MIC): 0.03 µM (≈ 0.0273 µg/mL) | MIC (M. abscessus ATCC 19977; M. abscessus ATCC 19977, 90% growth inhibition): 0.018 µM (≈ 0.0164 µg/mL) | MIC ratio (M. abscessus ATCC 19977; WT MIC/Δarr strain MIC): 0.72 | MBC (M. abscessus Bamboo [2]; broth, 5 days): 0.13 µM (≈ 0.118 µg/mL) | cMBC90/bMBC90 (M. abscessus Bamboo [3]; 5-day assays): 5 | MBC (M. abscessus Bamboo [3]; caseum surrogate, 5 days, 90% CFU reduction vs drug-free control): 0.65 µM (≈ 0.592 µg/mL)

NCC[C@H](O)C(=O)N[C@@H]1C[C@H](N)[C@@H](O[C@H]2O[C@H](CN)[C@@H](O)[C@H](O)[C@H]2O)[C@H](O)[C@H]1O[C@H]1O[C@H](CO)[C@@H](O)[C@H](N)[C@H]1O [Amikacin]
MIC (M. abscessus Bamboo [1]; [6]): 25 µM (≈ 14.6 µg/mL) | MBC (M. abscessus Bamboo [2]; [7]): 40 µM (≈ 23.4 µg/mL) | cMBC90/bMBC90 (M. abscessus Bamboo [3]; 5-day assays): 0.3 | MBC (M. abscessus Bamboo [3]; [8]): 12 µM (≈ 7.03 µg/mL)

COc1nc2ccc(Br)cc2cc1[C@@H](c1ccccc1)[C@@](O)(CCN(C)C)c1cccc2ccccc12 [Bedaquiline, bedaquiline]
MIC (M. abscessus Bamboo [1]; [6]): 0.4 µM (≈ 0.222 µg/mL) | MBC (M. abscessus Bamboo [2]; Mycobacteroides abscessus, 240 h, assay extended to 10 days): 2 µM (≈ 1.11 µg/mL) | cMBC90/bMBC90 (M. abscessus Bamboo [3]; 10-day assays): 33.5 | MBC (M. abscessus Bamboo [3]; Mycobacteroides abscessus, 240 h, caseum surrogate, assay extended to 10 days): 67 µM (≈ 37.2 µg/mL)

CO[C@@]1(NC(=O)Cc2cccs2)C(=O)N2C(C(=O)O)=C(COC(N)=O)CS[C@@H]21 [Cefoxitin, cefoxitin]
MIC (M. abscessus Bamboo [1]; [6]): 29 µM (≈ 12.4 µg/mL) | MBC (M. abscessus Bamboo [2]; [7]): 45 µM (≈ 19.2 µg/mL) | cMBC90/bMBC90 (M. abscessus Bamboo [3]; 5-day assays): 0.78 | MBC (M. abscessus Bamboo [3]; [8]): 35 µM (≈ 15 µg/mL)

CC(C)/N=c1\cc2n(-c3ccc(Cl)cc3)c3ccccc3nc-2cc1Nc1ccc(Cl)cc1 [Clofazimine, clofazimine]
MIC (M. abscessus Bamboo [1]; [6]): 12.5 µM (≈ 5.92 µg/mL) | MBC (M. abscessus Bamboo [2]; [7]): > 128 µM | MBC (M. abscessus Bamboo [3]; [8]): > 128 µM

C[C@@H](O)[C@H]1C(=O)N2C(C(=O)O)=C(SCCN=CN)C[C@H]12 [Imipenem, imipenem]
MIC (M. abscessus Bamboo [1]; [6]): 10 µM (≈ 2.99 µg/mL) | MBC (M. abscessus Bamboo [2]; [7]): 18 µM (≈ 5.39 µg/mL) | cMBC90/bMBC90 (M. abscessus Bamboo [3]; 5-day assays): 2.3 | MBC (M. abscessus Bamboo [3]; [8]): 42 µM (≈ 12.6 µg/mL)

CC(=O)NC[C@H]1CN(c2ccc(N3CCOCC3)c(F)c2)C(=O)O1 [Linezolid, linezolid]
MIC (M. abscessus Bamboo [1]; [6]): 25 µM (≈ 8.43 µg/mL) | MBC (M. abscessus Bamboo [2]; [7]): 32 µM (≈ 10.8 µg/mL) | cMBC90/bMBC90 (M. abscessus Bamboo [3]; 5-day assays): 16 | MBC (M. abscessus Bamboo [3]; [8]): 512 µM (≈ 173 µg/mL)

COc1c(N2C[C@@H]3CCCN[C@@H]3C2)c(F)cc2c(=O)c(C(=O)O)cn(C3CC3)c12 [Moxifloxacin, moxifloxacin]
MIC (M. abscessus Bamboo [1]; [6]): 6 µM (≈ 2.41 µg/mL) | MBC (M. abscessus Bamboo [2]; [7]): 2 µM (≈ 0.803 µg/mL) | cMBC90/bMBC90 (M. abscessus Bamboo [3]; 5-day assays): 4 | MBC (M. abscessus Bamboo [3]; [8]): 8 µM (≈ 3.21 µg/mL)

CN(C)c1cc(NC(=O)CNC(C)(C)C)c(O)c2c1C[C@H]1C[C@H]3[C@H](N(C)C)C(O)=C(C(N)=O)C(=O)[C@@]3(O)C(O)=C1C2=O [Tigecycline, tigecycline]
MIC (M. abscessus Bamboo [1]; Mycobacteroides abscessus): 12.5 µM (≈ 7.32 µg/mL) | MBC (M. abscessus Bamboo [2]; [7]): 8 µM (≈ 4.69 µg/mL) | cMBC90/bMBC90 (M. abscessus Bamboo [3]; 5-day assays): 1 | MBC (M. abscessus Bamboo [3]; [8]): 8 µM (≈ 4.69 µg/mL)

CO[C@H]1/C=C/O[C@@]2(C)Oc3c(C)c(O)c4c(c3C2=O)C2=NC3(CCN(CC(C)C)CC3)NC2=C(NC(=O)/C(C)=C/C=C/[C@H](C)[C@H](O)[C@@H](C)[C@@H](O)[C@@H](C)[C@H](OC(=O)NC2CCN(Cc3ccccc3)CC2)[C@@H]1C)C4=O [UMN15]
CYP3A4 gene fold-induction at 10 μM (CYP3A4): 1.2 | ƒAUC/MIC ([4]; Table 18): 0.8 | CL ([4]; mouse, in vivo): 6.40 mL/min/kg | F ([4]; mouse, in vivo): 35% | Vd ([4]; mouse, in vivo): 5.92 L/kg | AUCp.o. ([4]; mouse, in vivo): 5658 ng·h/mL | MICΔorr (Δarr M. abscessus): 0.028 µM | MIC (Mycobacterium abscessus; Table 22, read-out: MICMab): 0.013 µM (≈ 0.0133 µg/mL) | MICWT (M. abscessus ATCC 19977): 0.013 µM | MIC (M. abscessus ATCC 19977; Table 14, carbamate analogs): 0.013 µM (≈ 0.0133 µg/mL) | ƒu [5]: 0.2% | plasma unbound fraction ([5]; plasma): 0.19%

CO[C@H]1/C=C/O[C@@]2(C)Oc3c(C)c(O)c4c(c3C2=O)C2=NC3(CCN(CC(C)C)CC3)NC2=C(NC(=O)/C(C)=C/C=C/[C@H](C)[C@H](O)[C@@H](C)[C@@H](O)[C@@H](C)[C@H](OC(=O)NC2CC(C)(C)NC(C)(C)C2)[C@@H]1C)C4=O [UMN32]
CYP3A4 gene fold-induction at 10 μM (CYP3A4; human, 10 μM): 0.6 | MICΔorr (Δarr M. abscessus): 0.09 µM | MIC (Mycobacterium abscessus; Mycobacteroides abscessus, 72 h, Table 22, read-out: MICMab): 0.04 µM (≈ 0.0395 µg/mL) | MIC (M. abscessus ATCC 19977; Mycobacteroides abscessus, ATCC19977, Table 14, carbamate analogs): 0.04 µM (≈ 0.0395 µg/mL) | MICWT (M. abscessus ATCC 19977): 0.04 µM | ƒu ([5]; 4 h, 10000 ng/mL): 6.7% | fraction unbound at 4 h, 10000 ng/mL ([5]; plasma): 0.067

CO[C@H]1/C=C/O[C@@]2(C)Oc3c(C)c(O)c4c(c3C2=O)C2=NC3(CCN(CC(C)C)CC3)NC2=C(NC(=O)/C(C)=C/C=C/[C@H](C)[C@H](O)[C@@H](C)[C@@H](O)[C@@H](C)[C@H](OC(=O)Nc2cnccn2)[C@@H]1C)C4=O [UMN120]
CYP3A4 gene fold-induction at 10 μM (CYP3A4): 0.7 | F ([4]; mouse, in vivo): 73% | ƒAUC/MIC ([4]; mouse, in vivo): 88.8 | AUCp.o. ([4]; mouse, in vivo): 55072 ng·h/mL | MIC (Mycobacterium abscessus; Table 22, read-out: MICMab): 0.028 µM (≈ 0.0259 µg/mL) | MIC (Mycobacterium abscessus; against Mycobacterium abscessus, Table 19, read-out: MIC): 0.028 µM (≈ 0.0259 µg/mL) | MIC (M. abscessus ATCC 19977; Table 15, heterocyclic aromatic carbamates): 0.028 µM (≈ 0.0259 µg/mL) | ƒu [5]: 4.2% | plasma unbound (ƒu, %) ([5]; plasma): 4.2%

— patent US20260109712A1, “RIFAMYCINS FOR NONTUBERCULOUS MYCOBACTERIA” (priority 2022, published 2026)
